The subject of one data set is T1, G. vaginalis.
T1 construct: DSM 4944
As to the kind of experiment: microbe, parasite or virus in culture. Set-up: Microbial growth in liquid dilution assay, OD600 relative to DMSO control. As to conditions: Gardnerella vaginalis, read-out: G. vaginalis, IC50 (µM) estimate.

A further data set has as its system T2, B. thetaiotaomicron.
T2 construct: DSM 2079
As to the kind of experiment: microbe, parasite or virus in culture. Set-up: Microbial growth in liquid dilution assay, OD600 relative to DMSO control. The settings on record: Bacteroides thetaiotaomicron; estimated IC50; read-out: B. thetaiotaomicron, IC50 (µM) estimate. The procedure, abridged:
(§1)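 Dilution-format growth assay against commensal species; compound levels included 30 µM. Radial diffusion variant: 24–48 h exposure, inhibition zone read.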

Another data set relates to T3, E. faecalis.
T3 construct: DSM 20478
Kind of data set: microbe, parasite or virus in culture. Set-up: Microbial growth in liquid dilution assay, OD600 relative to DMSO control. As to conditions: Enterococcus faecalis; estimated IC50; read-out: E. faecalis, IC50 (µM) estimate. The procedure, abridged: as §1

The test system of the next data set is T4, E. coli.
T4 construct: DSM 301
Kind of data set: microbe, parasite or virus in culture. Set-up: Microbial growth in liquid dilution assay, OD600 relative to DMSO control. The settings on record: Escherichia coli; estimated IC50; read-out: E. coli, IC50 (µM) estimate. The procedure, abridged:
as §1

The subject of another data set is T5, L. reuteri.
T5 construct: DSM 20016
Kind of data set: microbe, parasite or virus in culture. Also noted: Microbial growth in liquid dilution assay, OD600 relative to DMSO control. As to conditions: Limosilactobacillus reuteri; estimated IC50; read-out: L. reuteri, IC50 (µM) estimate. The procedure, abridged: as §1

Another data set relates to T6, B. adolescentis.
T6 construct: DSM 20083
As to the kind of experiment: microbe, parasite or virus in culture. Set-up: Microbial growth in liquid dilution assay, OD600 relative to DMSO control. As to conditions: Bifidobacterium adolescentis; estimated IC50; read-out: B. adolescentis, IC50 (µM) estimate. The procedure, abridged:
as §1

Data set [1] relates to T7, CTL2-GFP (C. trachomatis L2/434/Bu, GFP-expressing).
T7 construct: L2/434/Bu, GFP-expressing
Kind of data set: microbe, parasite or virus in culture. Also noted: C. trachomatis growth in HeLa, dose-response, mean of bulk GFP fluorescence and imaged total inclusion area. As to conditions: Chlamydia trachomatis, HeLa, 28.5 h; mean of GFP and inclusion area. The procedure, abridged: (§2)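 After bulk GFP and resorufin reads, fixed cells were Hoechst-stained and imaged to count chlamydial inclusions and host nuclei. Total inclusion area and number tracked bacterial growth, and nuclei number tracked host viability. MICs were derived, and 36,785 drug-like molecules were screened this way.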

For data set [2] the test system is unchanged. Kind of data set: microbe, parasite or virus in culture. Set-up: species or system HeLa; C. trachomatis growth in HeLa, dose-response, mean of bulk GFP fluorescence and imaged total inclusion area. The settings on record: Chlamydia trachomatis, 28.5 h; mean of GFP and inclusion area. The procedure, abridged:
as §2

The next data set in a line: in vitro. The settings on record: human, hela cells; bulk resorufin, mean of 3. Also noted: Viability of infected HeLa host cells, resazurin conversion, bulk resorufin fluorescence relative to DMSO.
A further data set has as its system T8, L. crispatus.
T8 construct: DSM 20584
Kind of data set: microbe, parasite or virus in culture. Also noted: Microbial growth in liquid dilution assay, OD600 relative to DMSO control. As to conditions: Lactobacillus crispatus; estimated IC50; read-out: L. crispatus, IC50 (µM) estimate.

The test system of another data set is T9, C. albicans.
T9 construct: DSM 1577
Kind of data set: microbe, parasite or virus in culture. The settings on record: Candida albicans, read-out: C. albicans, IC50 (µM) estimate. Also noted: Microbial growth in liquid dilution assay, OD600 relative to DMSO control.

The test system of a further data set is T10, L. iners.
T10 construct: DSM 13335
Kind of data set: organism not typed. Set-up: Microbial growth in liquid dilution assay, OD600 relative to DMSO control. As to conditions: estimated IC50; read-out: L. iners, IC50 (µM) estimate.

Data set [3] relates to T7, CTL2-GFP (C. trachomatis L2/434/Bu, GFP-expressing). Kind of data set: microbe, parasite or virus in culture. As to conditions: Chlamydia trachomatis, HeLa, 28.5 h; bulk GFP. Also noted: Intracellular C. trachomatis growth in HeLa cells, bulk GFP fluorescence relative to DMSO. How it is done:
(§3) MICs were calculated as described above.

The test system is the same in data set [4]. Kind of data set: microbe, parasite or virus in culture. The settings on record: Chlamydia trachomatis, 28.5 h; bulk GFP. Also noted: species or system HeLa; Intracellular C. trachomatis growth in HeLa cells, bulk GFP fluorescence relative to DMSO. How it is done: as §3
The target of data set [5] is T11, ctFabH (CTL2 FabH), His6(-fMet)SG-ctFabH (Chlamydia trachomatis, UniProt O84242).
T11 construct: synthetic gene, modified pRSF-Duet1, E. coli host; partly acylated (mainly pentanoyl) as purified
T11 sequence (O84242 2-327): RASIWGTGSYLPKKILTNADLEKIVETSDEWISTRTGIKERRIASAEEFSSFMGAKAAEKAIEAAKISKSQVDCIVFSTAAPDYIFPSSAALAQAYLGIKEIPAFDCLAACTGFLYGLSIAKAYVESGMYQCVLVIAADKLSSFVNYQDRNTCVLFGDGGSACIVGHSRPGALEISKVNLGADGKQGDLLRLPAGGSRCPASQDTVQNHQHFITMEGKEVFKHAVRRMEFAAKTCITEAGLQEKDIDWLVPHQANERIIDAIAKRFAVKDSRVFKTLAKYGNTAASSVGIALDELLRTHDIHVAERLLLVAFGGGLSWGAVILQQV
Kind of data set: continuous UV assay of acetoacetyl-CoA at […] nm. The class given is biochemical. The settings on record: 20 µM enzyme, 100 µM acetyl-CoA, 100 µM malonyl-CoA, pH 8.0, 25 °C, 50 mM MgCl2.

In data set [6] the target is T12, acyl-modification-free ctFabH (Chlamydia trachomatis, UniProt O84242).
T12 construct: gene fabH
T12 sequence (O84242 2-327): T11 sequence (O84242 2-327)
As to the kind of experiment: intact protein LC/MS. The class given is biochemical. The settings on record: covalent acyl-enzyme intermediate; 10 µM protein, 50 µM acyl-CoA, pH 7.0.

Here are results for four molecules from paper PMC12040169 (PLOS Biology, 2025).

Converted amounts (≈) assume the structure as drawn.

As for `O=C(c1ccc(-c2ccc(F)cc2)o1)N1C[C@H]2CC[C@](O)(c3ccc(F)cc3)[C@H]2C1` [c2e], the IC50 in the data set on G. vaginalis is > 30 µM. The IC50 with B. thetaiotaomicron is > 30 µM. Moreover, the IC50 with E. faecalis is > 30 µM. Also, the IC50 in the data set with E. coli was > 30 µM. In addition, the IC50 with L. reuteri was > 30 µM. In addition, the IC50 in the data set with B. adolescentis is > 30 µM. The same molecule had an IC50 in data set [1] of 0.0961 µM. In data set [2], this molecule gave an MIC of 0.139 µM (≈ 0.0569 µg/mL). Also, in the data set “in vitro”, the viability at 28.5 h, 0.000416667 µM came to 90.3%; the viability at 28.5 h, 0.00125 µM came to 85.8%; the viability at 28.5 h, 0.00375 µM worked out at 93.6%; the viability at 28.5 h, 0.0123333 µM was determined as 89%. Further, in the data set “in vitro”, the viability at 28.5 h, 0.037 µM amounted to 91.7%; the viability at 28.5 h, 0.111 µM is 95.5%; the viability at 28.5 h, 0.333 µM is 95.7%; the viability at 28.5 h, 1 µM was 93.7%. In addition, in the data set “in vitro”, the viability at 28.5 h, 3 µM amounted to 98.2%; the viability at 28.5 h, 10 µM came out at 98.8%; the viability at 28.5 h, 30 µM came to 116%. The half-inhibitory concentration (IC50) in the data set on L. crispatus is > 30 µM. In addition, the IC50 in the data set on C. albicans is > 30 µM. In addition, the 50% inhibitory concentration (IC50) in the data set on L. iners was > 30 µM.

For `Cc1noc(NS(=O)(=O)c2ccc(NC(=O)CSc3nc4ccccc4s3)cc2)c1C` [c1v], the IC50 in [3] is 0.412 µM; in the data set on G. vaginalis it was > 30 µM; in the data set with B. thetaiotaomicron it was > 30 µM; in the data set with E. faecalis it was > 30 µM; in the data set on E. coli, > 30 µM; in the data set on L. reuteri, > 30 µM. For the same molecule, the IC50 in the data set on B. adolescentis, with L. crispatus, with C. albicans and in the data set on L. iners was > 30 µM in each case. This molecule also gave an MIC in data set [4] of 0.552 µM (≈ 0.262 µg/mL).

For the molecule `CC(=O)SCCNC(=O)CCNC(=O)[C@H](O)C(C)(C)COP(=O)(O)OP(=O)(O)OC[C@H]1O[C@@H](n2cnc3c(N)ncnc32)[C@H](O)[C@@H]1OP(=O)(O)O` [acetyl-CoA], in [5], the “continuous UV assay of acetoacetyl-CoA at 302 nm” value was “using acetyl-CoA and malonyl-CoA (instead of malonyl-ACP) as substrates”.

Consider `CC(C)CC(=O)SCCNC(=O)CCNC(=O)[C@H](O)C(C)(C)COP(=O)(O)OP(=O)(O)OC[C@H]1O[C@@H](n2cnc3c(N)ncnc32)[C@H](O)[C@@H]1OP(=O)(O)O` [isovaleryl-CoA], for which, in data set [6], the “intact protein LC/MS” value was 2-methylbutyryl-CoA or isovaleryl-CoA, as expected, generated the corresponding acyl-enzyme intermediates.

What is called IC50 is the concentration needed to halve the response being measured. In general, viability refers to a read-out of living cells in per cent, often relative to untreated cells.
